Experimental findings from publication PMC8494430, “Development of a fluorogenic ADAMTS-7 substrate” (Journal of Enzyme Inhibition and Medicinal Chemistry, 2021) are described below.

Format in all cases: biochemical
The target in test [1] is T1, MMP-2 (Homo sapiens, UniProt P08253).
T1 sequence (P08253 110-660): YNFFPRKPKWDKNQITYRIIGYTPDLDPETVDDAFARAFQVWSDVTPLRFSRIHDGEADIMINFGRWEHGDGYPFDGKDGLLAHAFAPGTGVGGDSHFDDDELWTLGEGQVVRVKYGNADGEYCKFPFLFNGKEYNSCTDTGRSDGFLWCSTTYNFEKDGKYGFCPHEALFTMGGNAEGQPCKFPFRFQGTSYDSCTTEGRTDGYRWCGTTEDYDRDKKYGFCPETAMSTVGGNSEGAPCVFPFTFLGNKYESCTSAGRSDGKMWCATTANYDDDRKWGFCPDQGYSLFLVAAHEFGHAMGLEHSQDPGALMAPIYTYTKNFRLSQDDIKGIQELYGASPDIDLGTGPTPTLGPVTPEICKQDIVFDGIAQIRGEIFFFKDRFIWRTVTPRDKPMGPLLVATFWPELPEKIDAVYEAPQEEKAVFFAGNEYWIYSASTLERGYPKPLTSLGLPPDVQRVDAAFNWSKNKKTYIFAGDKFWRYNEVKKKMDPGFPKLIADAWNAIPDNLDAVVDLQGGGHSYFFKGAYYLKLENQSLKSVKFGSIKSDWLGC
Put plainly: MMP-2 FRET peptide inhibition assay. Conditions: Cheng-Prusoff, read-out: Ki app MMP-2. The source says: (§1) Substrate and Km values are in micromolar.
(§2) 2,3-diaminopropionyl diaminopropionic amide; Fam, 5,6-carboxyfluorescein; Mca, 7-
(§3) Enzyme Substrate [S] Km Reference

Test [2] addresses MMP-12 (Homo sapiens, UniProt P39900). As to the kind of experiment: MMP-12 FRET peptide inhibition assay. The note with it: Cheng-Prusoff, read-out: Ki app MMP-12.
Source text: as §1, §2, §3

The target in test [3] is T2, ADAMTS-7 (Homo sapiens, UniProt Q9UKP4).
T2 construct: the recombinant construct ADAMTS7-T8, which lacks the C-terminal PLAC domain; made in house
T2 sequence (Q9UKP4 237-1631 limits assumed): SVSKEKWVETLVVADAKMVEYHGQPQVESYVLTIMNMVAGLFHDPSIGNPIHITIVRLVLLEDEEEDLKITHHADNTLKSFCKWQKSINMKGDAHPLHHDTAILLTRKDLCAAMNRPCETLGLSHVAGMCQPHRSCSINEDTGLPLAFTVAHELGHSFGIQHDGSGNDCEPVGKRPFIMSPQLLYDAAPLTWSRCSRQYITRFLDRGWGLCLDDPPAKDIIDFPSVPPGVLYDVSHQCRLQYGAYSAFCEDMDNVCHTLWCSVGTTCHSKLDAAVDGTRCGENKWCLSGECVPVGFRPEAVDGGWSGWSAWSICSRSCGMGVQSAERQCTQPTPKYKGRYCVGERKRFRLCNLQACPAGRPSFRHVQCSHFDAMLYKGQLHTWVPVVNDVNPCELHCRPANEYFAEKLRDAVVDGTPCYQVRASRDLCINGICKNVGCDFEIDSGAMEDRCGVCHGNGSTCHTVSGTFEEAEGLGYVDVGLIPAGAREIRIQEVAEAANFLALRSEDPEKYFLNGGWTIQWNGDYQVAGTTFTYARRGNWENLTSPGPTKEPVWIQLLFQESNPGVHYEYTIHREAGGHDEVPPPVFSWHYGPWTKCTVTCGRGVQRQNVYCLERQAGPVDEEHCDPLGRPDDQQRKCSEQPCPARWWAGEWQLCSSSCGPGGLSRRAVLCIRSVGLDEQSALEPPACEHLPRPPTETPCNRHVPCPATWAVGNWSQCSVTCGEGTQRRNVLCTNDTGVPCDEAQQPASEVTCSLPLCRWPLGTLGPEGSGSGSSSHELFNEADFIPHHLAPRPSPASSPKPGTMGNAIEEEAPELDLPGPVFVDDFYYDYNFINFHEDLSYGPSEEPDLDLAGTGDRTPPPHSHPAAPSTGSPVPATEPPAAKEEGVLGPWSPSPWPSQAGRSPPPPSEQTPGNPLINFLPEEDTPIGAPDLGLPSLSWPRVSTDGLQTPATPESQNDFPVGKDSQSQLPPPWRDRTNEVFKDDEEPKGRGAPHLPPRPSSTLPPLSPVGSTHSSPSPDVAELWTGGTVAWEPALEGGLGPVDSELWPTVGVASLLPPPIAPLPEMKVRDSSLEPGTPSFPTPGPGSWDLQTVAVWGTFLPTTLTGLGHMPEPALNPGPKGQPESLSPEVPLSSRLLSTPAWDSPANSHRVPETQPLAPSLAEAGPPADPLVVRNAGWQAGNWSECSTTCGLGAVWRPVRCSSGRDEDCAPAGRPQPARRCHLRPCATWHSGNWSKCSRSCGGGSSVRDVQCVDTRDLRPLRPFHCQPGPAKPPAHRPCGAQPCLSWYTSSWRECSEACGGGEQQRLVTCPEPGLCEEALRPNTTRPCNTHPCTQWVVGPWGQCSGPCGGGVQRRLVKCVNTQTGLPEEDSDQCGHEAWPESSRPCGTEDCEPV
Put plainly: Cleavage of FRET peptides by ADAMTS-7 (kinetic constants, cleavage rate). Conditions: 37 °C. On the procedure:
All enzyme assays were conducted in TNC-B buffer (50 mM Tris- HCl, pH 7.5, 150 mM NaCl, 10 mM CaCl2, and 0.02% NaN3) at 37 °C in 384 well plates (Cat. No: 784900, Greiner Bio-One, Austria). To avoid the formation of inhibitor or peptide aggregates, the detergent Brij-35 (0.05%) was added to TNC-B[13]. For inhibition studies, stock solutions of chemical compounds were prepared in dimethyl sulfoxide (DMSO) (10 mM). These were further diluted at different concentrations in TNC-B and incubated with ADAMTS-1, ADAMTS-4, ADAMTS-5, ADAMTS-7 or ADAMTS-8 (10 nM) for 1 h at 37 °C. Blank samples were prepared using buffer only and the rate of cleavage for blank reactions was subtracted from the rates measured in the presence of enzyme. Upon addition of the indicated ADAMTS-7 FRET substrates (40 µM), the fluorescence was measured immediately using a FLUOstar Omega microplate reader (BMG Labtech, Germany) with an excitation filter wavelength of 485 nm and an emission filter wavelength of 520 nm.
Relative Fluorescence Units (RFU) were converted into product concentration by dividing for the number of RFU generated upon complete digestion of 2.5 µM substrate. kcat values were determined by dividing Vmax by [E]t. Correction for inner filter effects was performed as before.

[4] abbreviates: cleavage of ATS7FP7 by ADAMTS-7 (10 nM).

MMP-12, sequence (P39900 106-470): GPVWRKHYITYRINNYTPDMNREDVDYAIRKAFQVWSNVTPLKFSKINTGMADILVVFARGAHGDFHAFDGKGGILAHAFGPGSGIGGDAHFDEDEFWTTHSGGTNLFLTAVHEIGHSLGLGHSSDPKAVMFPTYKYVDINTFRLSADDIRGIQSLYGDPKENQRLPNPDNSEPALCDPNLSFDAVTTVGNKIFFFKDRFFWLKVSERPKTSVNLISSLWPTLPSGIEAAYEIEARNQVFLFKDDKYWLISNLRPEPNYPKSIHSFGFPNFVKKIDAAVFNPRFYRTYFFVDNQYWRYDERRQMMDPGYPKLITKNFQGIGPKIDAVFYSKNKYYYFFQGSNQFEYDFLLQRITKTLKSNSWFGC

As for `O=C(NCCC[C@@H](NS(=O)(=O)c1ccc(OCc2ccc(F)cc2Cl)cc1)C(=O)NO)c1ccccc1` [EDV33], the results for the Ki in test [1] and in test [2] were 4 ± 0.3 nM and 0.53 ± 0.06 nM, respectively.

As to “Glu-Ala-Ala-Ala-Arg↓Ala-Glu↓Ala-Ala-Ala-Lys [ATS7FP7]”, the “cleavage rate by ADAMTS-7” value in test [3] (FRET peptides 40 μM, ADAMTS-7 10 nM) is on record as “increased compared to that of ATS7FP0”. Also, in test [3] (setting [4]), the Km – broadly, the substrate concentration at which the rate is half of its maximum – is 10.5 ± 1.5 µM; the kcat (in general, the number of substrate molecules converted per active site and unit of time at saturation) was found to be 0.035 ± 0.0017 s⁻¹.
